From patent US6841578B2, “Treatment and prevention of mucositis in cancer patients” (priority 2001, dated 2005)

Key:
[1] = test system: radiation-induced mucositis; assay: Hamster model of acute radiation-induced mucositis treated with resveratrol; format: in vivo, Male Golden Syrian hamsters; conditions: for percentage of days where hamsters had a mucositis score of three or higher: qd, day -1 to day 20, 40 Gy on day 0, control 46.0%
NF-κB = conditions: induction by TNF-α; phosphorylation and nuclear translocation of p65 subunit suppressed; cited from earlier work

SMILES: Oc1ccc(/C=C/c2cc(O)cc(O)c2)cc1 [resveratrol, trans-3,4′,5-trihydroxystilbene]
- percentage of days where hamsters had a mucositis score of three or higher ([1]; 1 mM resveratrol, intraperitoneal): 21.6%
- percentage of days where hamsters had a mucositis score of three or higher ([1]; 5 mM resveratrol, intraperitoneal): 31.2%
- severity of mucositis compared to the control ([1]; intraperitoneal, 1 mM and 5 mM (FIG. 2)): reduced the severity of mucositis
- efficacy of 1 mM compared with 5 mM treatment ([1]; intraperitoneal, 1 mM versus 5 mM): more effective
- efficacy of topical application on mucositis ([1]; topical, tid, 1 mM and 5 mM): not statistically significant, indicated a trend of efficacy
- activation of NF-κB (NF-κB): blocked the activation of NF-κB
